Target: T1, human mAChR M1 (Homo sapiens, UniProt P11229)
T1 construct: hM1 and hM4 cDNAs were purchased from Missouri S&T cDNA Resource; host or cells: CHO-K1 cells, stably transfected with Lipofectamine2000
T1 sequence (P11229 1-460): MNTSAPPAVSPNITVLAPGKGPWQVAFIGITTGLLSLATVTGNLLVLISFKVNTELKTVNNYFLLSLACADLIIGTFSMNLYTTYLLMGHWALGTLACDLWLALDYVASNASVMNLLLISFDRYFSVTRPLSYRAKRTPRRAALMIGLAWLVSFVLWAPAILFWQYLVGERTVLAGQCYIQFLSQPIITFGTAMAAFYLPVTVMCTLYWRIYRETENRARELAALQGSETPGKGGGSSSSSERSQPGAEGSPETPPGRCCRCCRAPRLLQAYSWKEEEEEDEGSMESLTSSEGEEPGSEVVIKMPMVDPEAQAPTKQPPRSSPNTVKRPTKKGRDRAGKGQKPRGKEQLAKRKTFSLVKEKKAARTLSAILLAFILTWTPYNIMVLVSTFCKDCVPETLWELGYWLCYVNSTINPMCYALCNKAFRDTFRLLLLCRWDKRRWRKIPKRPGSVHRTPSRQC
Test: mAChR M1 cell-based functional assay (calcium mobilization, PAM mode, EC20 acetylcholine)
Settings: CHO-K1 cells expressing hM1, calcium flux (Fluo-4); for Emax: EC20 acetylcholine response; for EC50: concentration-dependent increase in the EC20 acetylcholine response
Excerpt: Chinese hamster ovary (CHO-K1) cells stably expressing rat (r)M1 were purchased from the American Type Culture Collection and cultured according to their indicated protocol. CHO cells stably expressing human (h)M2, hM3, and hM5 were described previously (Levey, et al., 1991); hM1 and hM4 cDNAs were purchased from Missouri S&T cDNA Resource; rM4 cDNA was provided by T. I. Bonner (National Institutes of Health, Bethesda, Md.). rM2 and rM3 were cloned from a rat brain cDNA library and sequence verified. hM1, rM2, rM3, hM4, and rM4 cDNAs were used to stably transfect CHO-K1 cells purchased from the American Type Culture Collection using Lipofectamine2000. To make stable rM2, hM2, rM3, hM4, and rM4 cell lines for use in calcium mobilization assays, these cells also were stably transfected with a chimeric G-protein (Gqi5) (provided by B. R. Conklin, University of California, San Francisco) using Lipofectamine 2000. rM1, hM1, rM3, hM3, rM5, and hM5 cells were grown in Ham's F-12 medium containing 10% heat-inactivated fetal bovine serum (FBS), 20 mM HEPES, and 50 µg/mL G418 sulfate. rM2-Gqi5, hM2-Gqi5, and hM4-Gqi5 cells were grown in the same medium also containing 500 μg/mL Hygromycin B. Stable rM4-Gqi5 cells were grown in DMEM containing 10% heat-inactivated FBS, 20 mM HEPES, 400 μg/mL G418 sulfate, and 500 μg/mL Hygromycin B.
For high throughput measurement of agonist-evoked increases in intracellular calcium, CHO-K1 cells stably expressing muscarinic receptors were plated in growth medium lacking G418 and hygromycin at 15,000 cells/20 μL/well in Greiner 384-well black-walled, tissue culture (TC)-treated, clear-bottom plates (VWR). Cells were incubated overnight at 37° C. and 5% CO2. The next day, cells were washed using an ELX 405 (BioTek) with four washes (80 μL) of assay buffer then aspirated to 20 μL. Next, 20 μL of 16 μM Fluo-4/acetoxymethyl ester (Invitrogen, Carlsbad, Calif.) prepared as a 2.3 mM stock in DMSO and mixed in a 1:1 ratio with 10% (w/v) Pluronic F-127 and diluted in assay buffer was added to the wells and the cell plates were incubated for 50 min at 37° C. and 5% CO2. Dye was removed by washing with the ELX 405 (four 80 μL washes of assay buffer) then aspirated to 20 μL. Compound master plates were formatted in an 11 point CRC format (1:3 dilutions) in 100% DMSO with a starting concentration of 10 mM using the BRAVO liquid handler (Agilent). Test compound CRCs were then transferred to daughter plates (240 nL) using the Echo acoustic plate reformatter (Labcyte, Sunnyvale, Calif.) and then diluted into assay buffer (40 μL) to a 2× stock using a Thermo Fisher Combi (Thermo Fisher Scientific, Waltham, Mass.).
Calcium flux was measured using the Functional Drug Screening System (FDSS) 6000 (Hamamatsu Corporation, Tokyo, Japan) as an increase in the fluorescent static ratio. Compounds were applied to cells (20 μL, 2×) using the automated system of the FDSS 6000 at 4 s into the 300 s protocol and the data were collected at 1 Hz. […] Agonist activity was analyzed as a concentration-dependent increase in calcium mobilization upon compound addition. Emax values for agonist activity are expressed relative to the maximum for acetylcholine. Positive allosteric modulator activity was analyzed as a concentration-dependent increase in the EC20 acetylcholine response. Antagonist activity was analyzed as a concentration-dependent decrease in the […] acetylcholine response. Concentration-response curves were generated using a four-parameter logistical equation in XLfit curve fitting software (IDBS, Bridgewater, N.J.) for Excel (Microsoft, Redmond, Wash.) or Prism (GraphPad Software, Inc., San Diego, Calif.).
Activity (EC50 and Emax) was determined in the mAChR M1 cell-based functional assay as described above and the data are shown in Table 2. The compound numbers correspond to the compound numbers used in Table 1.

## Cn1cc2c(-c3cc(F)c(Cc4cc(C(=O)N[C@H]5CCCC[C@@H]5O)c5ncccc5c4)c(F)c3)cccc2n1 [compound 22, 6-[[2,6-difluoro-4-(2-methylindazol-4-yl)phenyl]methyl]-N-[(1S,2S)-2-hydroxycyclohexyl]quinoline-8-carboxamide]
  Emax: 42%
  EC50: 5710 nM

## Cc1c(Cc2ccc(-n3cccn3)cc2)cc(C(=O)N[C@H]2CCOC[C@@H]2O)c2ncccc12 [compound 23, N-[(3R,4S)-3-hydroxytetrahydropyran-4-yl]-5-methyl-6-[(4-pyrazol-1-ylphenyl)methyl]quinoline-8-carboxamide]
  Emax: 77%
  EC50: 108 nM

## Cc1c(Cc2ccc(-n3cccn3)cc2)cc(C(=O)N[C@H]2CCCCC[C@@H]2O)c2ncccc12 [compound 24, N-[(1S,2S)-2-hydroxycycloheptyl]-5-methyl-6-[(4-pyrazol-1-ylphenyl)methyl]quinoline-8-carboxamide]
  Emax: 66%

## Cc1c(Cc2ccc(-n3cccn3)cc2)cc(C(=O)N[C@H]2CCCC[C@@H]2O)c2ncccc12 [compound 25, N-[(1S,2S)-2-hydroxycyclohexyl]-5-methyl-6-[(4-pyrazol-1-ylphenyl)methyl]quinoline-8-carboxamide]
  Emax: 81%
  EC50: 386 nM

## Cc1c(Cc2ccc(-n3cccn3)cc2)cc(C(=O)N[C@H]2CCC[C@@H]2O)c2ncccc12 [compound 26, N-[(1S,2S)-2-hydroxycyclopentyl]-5-methyl-6-[(4-pyrazol-1-ylphenyl)methyl]quinoline-8-carboxamide]
  Emax: 81%
  EC50: 958 nM

## Cc1c(Cc2ccc(-n3cccn3)cc2)cc(C(=O)N[C@H]2CC[C@@H]2O)c2ncccc12 [compound 27, N-[(1S,2S)-2-hydroxycyclobutyl]-5-methyl-6-[(4-pyrazol-1-ylphenyl)methyl]quinoline-8-carboxamide]
  Emax: 73%
  EC50: 1710 nM

## Cc1c(Cc2ccc(-n3cccn3)cc2)cc(C(=O)NC2CCOCC2)c2ncccc12 [compound 28, 5-methyl-6-[(4-pyrazol-1-ylphenyl)methyl]-N-tetrahydropyran-4-yl-quinoline-8-carboxamide]
  Emax: 41%
  EC50: 2250 nM

## Cc1c(Cc2ccc(-c3ccn(C)n3)nc2)cc(C(=O)N[C@H]2CCOC[C@@H]2O)c2ncccc12 [compound 29, N-[(3R,4S)-3-hydroxytetrahydropyran-4-yl]-5-methyl-6-[[6-(1-methylpyrazol-3-yl)-3-pyridyl]methyl]quinoline-8-carboxamide]
  Emax: 72%
  EC50: 197 nM

## Cc1c(Cc2ccc(-c3ccn(C)n3)nc2)cc(C(=O)N[C@H]2CCCC[C@@H]2O)c2ncccc12 [compound 30, N-[(1S,2S)-2-hydroxycyclohexyl]-5-methyl-6-[[6-(1-methylpyrazol-3-yl)-3-pyridyl]methyl]quinoline-8-carboxamide]
  Emax: 72%
  EC50: 356 nM

## Cc1c(Cc2ccc(-c3ccn(C)n3)nc2)cc(C(=O)NC2CCOCC2)c2ncccc12 [compound 31, 5-methyl-6-[[6-(1-methylpyrazol-3-yl)-3-pyridyl]methyl]-N-tetrahydropyran-4-yl-quinoline-8-carboxamide]
  Emax: 67%
  EC50: 4390 nM

## Cc1nc(-c2ccc(Cc3cc(C(=O)N[C@H]4CCOC[C@@H]4O)c4ncccc4c3C)cc2)co1 [compound 32, N-[(3R,4S)-3-hydroxytetrahydropyran-4-yl]-5-methyl-6-[[4-(2-methyloxazol-4-yl)phenyl]methyl]quinoline-8-carboxamide]
  Emax: 69%
  EC50: 336 nM

## Cc1nc(-c2ccc(Cc3cc(C(=O)N[C@H]4CCCCC[C@@H]4O)c4ncccc4c3C)cc2)co1 [compound 33, N-[(1S,2S)-2-hydroxycycloheptyl]-5-methyl-6-[[4-(2-methyloxazol-4-yl)phenyl]methyl]quinoline-8-carboxamide]
  Emax: 75%
  EC50: 2040 nM

## Cc1nc(-c2ccc(Cc3cc(C(=O)N[C@H]4CCCC[C@@H]4O)c4ncccc4c3C)cc2)co1 [compound 34, N-[(1S,2S)-2-hydroxycyclohexyl]-5-methyl-6-[[4-(2-methyloxazol-4-yl)phenyl]methyl]quinoline-8-carboxamide]
  Emax: 74%
  EC50: 562 nM

## Cc1nc(-c2ccc(Cc3cc(C(=O)NC4CCOCC4)c4ncccc4c3C)cc2)co1 [compound 35, 5-methyl-6-[[4-(2-methyloxazol-4-yl)phenyl]methyl]-N-tetrahydropyran-4-yl-quinoline-8-carboxamide]
  Emax: 38%
  EC50: 1370 nM

— patent publication US20200131159A1, “POSITIVE ALLOSTERIC MODULATORS OF THE MUSCARINIC ACETYLCHOLINE RECEPTOR M1” (Vanderbilt University, priority 2018, published 2020)
